Results from paper PMC4601023, “Novel anticancer agent, SQAP, binds to focal adhesion kinase and modulates its activity” (Scientific Reports, 2015).

Experiments:
Assay type in all cases: cell-based, human
A549 cells = assay: WST-8 cell viability assay, A549; details: A549, 46 h, SQAP 10 and 20 µM
Procedure: HUVEC and A549 cells were seeded into a 96-well culture plate (2 × 10^4 cells/well). The following day, cells were treated with SQAP or vehicle in a medium containing 1% FBS and VEGF (50 ng/mL) for 17 h (HUVEC) or fibronectin (10 μg/mL) for 46 h (A549). Cell viability was measured using Cell Count Reagent SF (Nacalai Tesque, Kyoto, Japan) following the manufacturer’s instructions. Briefly, 1/10 volume of the WST-8 solution was added to each well, and the plates were incubated at 37 °C for 1 h. Then, cell viability was determined colorimetrically by measuring OD450 using a microplate reader on a Wallac ARVO 5X microplate reader (Perkin Elmer, Waltham, MA, USA).
control SQAP 10 µM SQAP 20 µM
Livecellswere measured with SF reagent under similarconditionsas describedin thewound healing
assayinFig.5. (A)HUVEC and (B)A549 cells.
(also on this page, place not known: Cell viability (%) Cell viability (%) Live cells were similar conditions as described in the wound assay in Fig. 5. (A) HUVEC (B) A549)

HUVEC cells [1] = assay: Wound healing assay, HUVEC; details: 11 h, 1% FBS and VEGF 50 ng/mL, control 32%
Procedure: (§1) Figure 6 SQAP inhibits cell migration in vitro. (A) HUVEC cells were seeded and grown to 100% confluence in 60-mm diameter dishes. After generating a single scratch in the monolayer, the cells were cultured for 11 h in medium containing 1% FBS and VEGF (50 ng/mL) in the presence or absence of SQAP. Photographs were taken immediately after 11 h. (B) The change in wound width was measured as described in the Materials and Methods. (C) A549 cells were seeded and grown to 100% confluence in 60-mm diameter dishes. After generating a single scratch in the monolayer, the cells cultured for the 25 h in media containing 1% FBS and fibronectin (10 μg/ml) treated with SQAP or vehicle. Photographs were collected immediately after wounding and after 25 h. (D) The change in wound width was measured as described in the Materials and Methods. Cell migration was additionally examined in 96 well plates. HUVEC (E) and A549 cells (F) were seeded and grown into confluence overnight. After removing the stoppers, the live cells were stained with CellTracker^TM Green and incubated for the indicated time. The fluorescent emission signal was obtained with a plate reader. […]
Wound healing assay was analyzed by microscope imaging. […] Wound diameters in the images were measured and percentage of wound size was calculated as follows: [wound diameter at 11 or 25 h/wound diameter at 0 h] x 100.

[2] = tested on: VEGF mRNA expression in HUVEC cells; assay: VEGF mRNA expression, quantitative real-time RT-PCR, HUVEC; details: 6 h SQAP treatment
Procedure: Figure 5 Effect of SQAP on FAK phosphorylation. The level of FAK phosphorylated at Y397 and Y925 was evaluated by Western blotting. (A) HUVEC cells were serum-depleted for 20 h before treatment with SQAP or vehicle for 30 min followed by treatment with or without VEGF (50 ng/mL) for 30 min. (B) HUVEC cells were cultured as stated in section A and then treated with SQAP, SQMG or SQP. (C) A549 cells were serum-deprived for 48 h before pretreatment with SQAP or vehicle followed by treatment with or without fibronectin (10 μg/mL) for 30 min. (D) A549 cells were cultured as stated in section C and then treated with SQAP, SQMG or SQP. (E–F) HUVEC and A549 cells were treated with SQAP for 6 h before adding an RNA stabilization reagent and prepared for Quantitative real-time RT-PCR.
Total RNA was prepared using an RNeasy Mini Kit (QIAGEN Inc., Hilden, Germany) according to the manufacturer’s instructions and then reverse-transcribed to cDNA with Transcriptor First Strand cDNA Synthesis Kit (Roche Applied Science, Mnnheim, Germany). Measurement of gene expression by quantitative analysis was performed using the LightCycler system (Roche Applied Science). Quantitative real-time RT-PCR analysis of β-actin, TSP-1 and VEGF-A expression were performed using the LightCycler FastStart DNA MasterPLUS SYBR Green I system (Roche Applied Science). […]

HUVEC cells [3] = assay: In vitro cell migration assay (Oris kit), HUVEC; details: 96 well cell migration kit
Procedure: as §1, with “After removing the stoppers, the live cells were stained with CellTracker^TM Green and incubated for the indicated time.” left out
Wound healing was additionally assessed in HUVEC or A549 cells using a cell migration kit (Oris, Madison, WI, USA) as described by the manufacturer. […] The fluorescence emission signal in the migration zones was measured on a Wallac Arvo 5x microplate reader (Perkin Elmer, Waltham, MA, USA).

CCCCCCCCCCCCCCCCCC(=O)OCCCO[C@H]1O[C@H](CS(=O)(=O)O)[C@@H](O)[C@H](O)[C@H]1O [SQAP, sulfoquynovosylacylpropanediol] was tested, and the “cytotoxicity (WST-8 cell viability)” value (A549 cells) was “noncytotoxic”, the wound size (HUVEC cells [1]) was 62% and the “VEGF production level (mRNA, RT-PCR)” value [2] was “reduced”. The cell migration (HUVEC cells [3]) was “arrested”.
